Legend:
leukemic cells = conditions: cited from earlier work
lymphoid leukemia L-1210 = conditions: tumor cells implanted intraperitoneally; cited from earlier work
[1] = test system: Ehrlich ascites carcinoma; experiment: Preventive effect against the growth of Ehrlich ascites tumor (Method A); type: in vivo, mice (female ICR); conditions: for inhibition in vivo at 0.09 mg/kg: 0.09 mg/kg/day i.p.; for inhibition in vivo at 0.19 mg/kg: 0.19 mg/kg/day i.p.; for inhibition in vivo at 0.39 mg/kg: 0.39 mg/kg/day i.p.; for inhibition in vivo at 0.78 mg/kg: 0.78 mg/kg/day i.p.; for inhibition in vivo at 3.12 mg/kg: 3.12 mg/kg/day i.p.; for inhibition in vivo at 12.5 mg/kg: 12.5 mg/kg/day i.p.; for inhibition in vivo at 50 mg/kg: 50 mg/kg/day i.p.; for minimal effective dose: minimum dose with 100% inhibition of ascites tumor, unit from dose column, read-out: MED (Minimum Effective Dose); for inhibition in vivo at 1.56 mg/kg: 1.56 mg/kg/day i.p.; for inhibition in vivo at 6.25 mg/kg: 6.25 mg/kg/day i.p.
Method: (§1) (A) Preventive effect against the growth of Ehrlich ascites tumor:
(§2) 10^6 tumor cells of Ehrlich ascites carcinoma were inoculated intraperitoneally into a group of five femal mice (ICR mice, body weight: 19-23 g). A test compound was dissolved in a physiological saline solution [In the case where CCNU was employed as the test compound, said compound was suspended in a physiological saline solution containing 0.1% NIKKOL HCO-60 (trademark; a surface active agent manufactured by Nikko Chemicals Co. Ltd.)] and administered intraperioneally to the mice. The administration of the test compound was begun 24 hours after the inoculation of the tumor cells and performed once a day for 5 days. The volume of ascites in the treated mice were measured after 7 days of the experiment.
(§3) ^a T = the average volume of ascites in the treated mice
(§4) C = the average volume of ascites in the untreated mice (control group of
(§5) 100% inhibition for the growth of Ehrlich ascites tumor in mice without
(§6) causing the death of said mice)
(§7) 100% inhibition for the growth of said ascites tumor)
(§8) ^e Therapeutic index = MTD/MED
(§9) *the number of mice died/the number of mice used

[2] = as above; type: in vivo, mice (female ICR); conditions: mouse, in vivo, ip; maximum dose with 100% inhibition of Ehrlich ascites tumor without causing death; unit from dose column; read-out: MTD (Maximum Tolerated Dose)
Method: as §1, §2, §3, §4, §5, §6, §7, §8, §9

Leukemia L-1210 = experiment: Effect on the life span of mice implanted with leukemic cells of L-1210 (Method B); type: in vivo, mice (male BDF1); conditions: for ILS at 1.56 mg/kg / responders at 1.56 mg/kg: 1.56 mg/kg/day i.p.; for ILS at 12.5 mg/kg / responders at 12.5 mg/kg: 12.5 mg/kg/day i.p.; for ILS at 25 mg/kg / responders at 25 mg/kg: 25 mg/kg/day i.p.; for ILS at 50 mg/kg / responders at 50 mg/kg: 50 mg/kg/day i.p.
Method: (B) Effect on the life span of mice implanted with leukemic cells of L-1210:
10^5 leukemic cells of L-1210 were inoculated intraperitoneally into a group of four or six male mice (BDF1 mice, body weight: 19-23 g). A test compound was dissolved in a physiological saline solution and administered intraperitoneally to the mice. The administration of the test compound was begun 24 hours after the inoculation of the leukemic cells and performed once a day for 5 days. The survival days of the treated mice were observed.
^a T = the mean survival days of the treated mice
C = the mean survival days of the untreated mice (control group of mice)
^b ILS(Increase in Life Span) =-
^c 60day survivors = the number of mice survived for 60 days/the

[3] = 100 mg/kg/day i.p., once a day for 5 days
[4] = Mus musculus, Ehrlich, ip, 168 h, once a day for 5 days, read-out: Inhibition ratio
[5] = Mus musculus, Ehrlich, ip, 168 h
[6] = Mus musculus, L1210, ip, 120 h, once a day for 5 days, read-out: ILS (Increase in Life Span)
[7] = Mus musculus, L1210, ip, 120 h, 6.25 mg/kg/day i.p., once a day for 5 days, read-out: ILS (Increase in Life Span)
[8] = Mus musculus, L1210, ip, 1440 h, once a day for 5 days, read-out: 60-day survivors (mice survived for 60 days/mice used)
[9] = Mus musculus, L1210, ip, 1440 h, once a day for 5 days, read-out: 60-day survivors (mice survived for 60 days/mice used) (converted)
[10] = 200 mg/kg/day i.p., once a day for 5 days
[11] = Mus musculus, Ehrlich, ip, 168 h, 25 mg/kg/day i.p., once a day for 5 days, read-out: Inhibition ratio
[12] = Mus musculus, Ehrlich, ip, 168 h, 100 mg/kg/day i.p., once a day for 5 days, read-out: Inhibition ratio

Row | SMILES | Therapeutic index (MTD/MED) [1] | inhibition in vivo at 0.19 mg/kg [1, 4] [%] | inhibition in vivo at 0.39 mg/kg [1, 4] [%] | inhibition in vivo at 0.78 mg/kg [1, 4] [%] | inhibition in vivo at 3.12 mg/kg [1, 4] [%] | minimal effective dose [1, 5] [mg/kg/day] | MTD at 168 h [2] [mg/kg/day] | ILS at 12.5 mg/kg (Leukemia L-1210; [6]) [%] | ILS at 25 mg/kg (Leukemia L-1210; [6]) [%] | responders at 12.5 mg/kg (Leukemia L-1210; [9]) [%] | responders at 25 mg/kg (Leukemia L-1210; [9]) [%] | Toxic (number of mice died/number of mice used) [1, 10] | inhibition in vivo at 1.56 mg/kg [1, 4] [%] | inhibition in vivo at 6.25 mg/kg [1, 4] [%] | inhibition in vivo at 25 mg/kg [1, 11] [%] | inhibition in vivo at 100 mg/kg [1, 12] [%] | ILS at 50 mg/kg (Leukemia L-1210; [6]) [%] | responders at 50 mg/kg (Leukemia L-1210; [9]) [%] | also measured
1 | O=NN(CCCl)C(=O)NC1O[C@H](CO)[C@@H](O[C@@H]2O[C@H](CO)[C@H](O)[C@H](O)[C@H]2O)[C@H](O)[C@H]1O (stereo partly drawn) [1-(2-chloroethyl)-1-nitroso-3-(D-lactosyl)urea] |  |  |  |  |  |  |  |  |  |  |  |  |  |  |  |  |  |  | anti-tumor activity against leukemic cells (leukemic cells): show anti-tumor activity
2 | O=NN(CCCl)C(=O)NC1O[C@H](CO)[C@@H](O[C@H]2O[C@H](CO)[C@@H](O)[C@H](O)[C@H]2O)[C@H](O)[C@H]1O (stereo partly drawn) [1-(2-chloroethyl)-1-nitroso-3-(D-maltosyl)urea] |  |  |  |  |  |  |  |  |  |  |  |  |  |  |  |  |  |  | anti-tumor activity against leukemic cells (leukemic cells): show anti-tumor activity
3 | O=NN(CCCl)C(=O)NC1O[C@H](CO)[C@@H](O)[C@H](O)[C@@H]1O (stereo partly drawn) [1-(2-chloroethyl)-1-nitroso-3-(D-mannopyranosyl)urea] |  |  |  |  |  |  |  |  |  |  |  |  |  |  |  |  |  |  | life span of mice implanted with L-1210 (lymphoid leukemia L-1210): increase the life span
4 | COCC(C)N(C(=O)N(CCCl)N=O)C1OC[C@H](O)[C@H](O)[C@H]1O (stereo partly drawn) [Compound 6, 1-(2-chloroethyl)-1-nitroso-3-(1-methyl-2-methoxy-ethyl)-3-(L-arabinopyranosyl)urea] | 64 | 63.2 | 92.1 | 100 | 100 | 0.78 | 50 | > 722 | > 722 | 100 | 100 |  |  |  |  |  |  |  | Toxic (number of mice died/number of mice used) [1, 3]: 5/5; inhibition in vivo at 0.09 mg/kg [1, 4]: 15.8%; inhibition in vivo at 12.5 mg/kg [1, 4]: 100%; inhibition in vivo at 50 mg/kg [1, 4]: 100%; ILS at 1.56 mg/kg (Leukemia L-1210; [6]): 57.5%; ILS at 6.25 mg/kg (Leukemia L-1210; [7]): > 270%; responders at 1.56 mg/kg (Leukemia L-1210; [8]): 0%; increase in the average life span (Leukemia L-1210; daily dose 0.45 mg/kg i.p., five consecutive days): about 30%
5 | COCCCN(C(=O)N(CCCl)N=O)C1OC[C@@H](O)[C@@H](O)[C@@H]1O (stereo partly drawn) [Compound 7, 1-(2-chloroethyl)-1-nitroso-3-(3-methoxy-n-propyl)-3-(D-arabinopyranosyl)urea] | 128 | 23.2 | 73.2 | 100 |  | 0.78 | 100 | > 215 | > 641 | 25 | 100 | 5/5 | 100 | 100 | 100 | 100 | > 641 | 100 | therapeutic index (M.T.D./M.E.D.) relative to that of GANU ([1]; Ehrlich ascites tumor, greater than that of GANU): 4 times; ILS at 3.12 mg/kg (Leukemia L-1210; Mus musculus, L1210, ip, 120 h, 3.12 mg/kg/day i.p., once a day for 5 days, read-out: ILS (Increase in Life Span)): 66.7%; responders at 3.12 mg/kg (Leukemia L-1210; Mus musculus, L1210, ip, 1440 h, 3.12 mg/kg/day i.p., once a day for 5 days, read-out: 60-day survivors (mice survived for 60 days/mice used)): 0%
6 | COCC(C)N(C(=O)N(CCCl)N=O)C1O[C@H](CO)[C@H](O)[C@H](O)[C@H]1O (stereo partly drawn) [Compound 8, 1-(2-chloroethyl)-1-nitroso-3-(1-methyl-2-methoxy-ethyl)-3-(D-galactopyranosyl)urea] | 64 |  | 18.4 | 65.8 |  | 1.56 | 100 | 158 | > 496 | 0 | 50 | 5/5 | 100 | 100 | 100 | 100 | > 722 | 100 | 
7 | COCCN(C(=O)N(CCCl)N=O)C1O[C@H](CO)[C@@H](O)[C@H]1O (stereo partly drawn) [Compound 9, 1-(2-chloroethyl)-1-nitroso-3-(2-methoxyethyl)-3-(D-ribofuranosyl)urea] | 64 | 20 | 62 | 100 | 100 | 0.78 | 50 | > 414 | > 757 | 50 | 100 |  |  |  |  |  | > 757 | 100 | Toxic (number of mice died/number of mice used) [1, 3]: 3/5; inhibition in vivo at 12.5 mg/kg [1, 4]: 100%; inhibition in vivo at 50 mg/kg [1, 4]: 100%; ILS at 1.56 mg/kg (Leukemia L-1210; [6]): 40%; ILS at 6.25 mg/kg (Leukemia L-1210; [7]): > 243%; responders at 1.56 mg/kg (Leukemia L-1210; [8]): 0%; responders at 6.25 mg/kg (Leukemia L-1210; Mus musculus, L1210, ip, 1440 h, 6.25 mg/kg/day i.p., once a day for 5 days, read-out: 60-day survivors (mice survived for 60 days/mice used) (converted)): 25%
8 | COCCCN(C(=O)N(CCCl)N=O)C1O[C@H](CO)[C@@H](O)[C@H](O)[C@H]1O (stereo partly drawn) [Compound 12, 1-(2-chloroethyl)-1-nitroso-3-(3-methoxy-n-propyl)-3-(D-glucopyranosyl)urea] | 32 |  | 10 | 34 | 100 | 3.12 | 100 |  | > 304 | 0 | 25 | 5/5 | 90 | 100 | 100 | 100 | > 757 | 100 | 
9 | O=NN(CCCl)C(=O)N[C@@H]1O[C@H](CO)[C@@H](O)[C@H](O)[C@H]1O [GANU, 1-(2-chloroethyl)-1-nitroso-3-(D-glucopyranosyl)urea, reference compound] |  | 79.2 | 100 | 100 | 100 |  | 12.5 |  |  |  |  |  |  |  |  |  |  |  | Toxic (number of mice died/number of mice used) ([1]; 25 mg/kg/day i.p., once a day for 5 days): 5/5; inhibition in vivo at 0.09 mg/kg [1, 4]: 4.2%; inhibition in vivo at 1.25 mg/kg ([1]; Mus musculus, Ehrlich, ip, 168 h, 1.25 mg/kg/day i.p., once a day for 5 days, read-out: Inhibition ratio): 100%; life span of mice implanted with L-1210 (lymphoid leukemia L-1210): increase the life span

Source: US4241053A, “Novel nitrosourea compounds and process for preparing the same” (Tanabe Seiyaku Co., Ltd., priority 1978, dated 1980)
